Assays:
[1] = system: Wilson strain house flies; format: in vivo, house fly (susceptible Wilson strain); conditions: for Contact Synergistic Ratio, Carbaryl (LC50 insecticide alone / LC50 with synergist): in vivo; for Contact Synergistic Ratio, Pyrolan (LC50 insecticide alone / LC50 with synergist): synergist to insecticide 5:1 by weight, 24 h
In short: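 Flies held at room temperature in glass jars coated with acetone-deposited insecticide film, alone or with synergist at 5:1 synergist:insecticide by weight; 10% sugar supplied.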

houseflies = experiment: percent kill with Diazinon, Table XXVII (strain not given); format: in vivo, housefly; conditions: Diazinon 5 + synergist 10 μg/fly, 1440 min
mice = experiment: acute toxicity of Dimetilan alone and of synergist alone (intraperitoneal); format: in vivo, Swiss albino white male mice; conditions: synergist alone 1000 mg/kg ip, 72 hours, of eight mice
[2] = system: German male cockroaches (Blatella Germanicus); experiment: topical application to thorax, 24 hour mortality of German male cockroaches; format: in vivo, German cockroach (Blatella Germanicus)
Protocol: The synergistic effect with mobam of synergist compounds I-B, II-H, II-K and IV-C is further illustrated by the 24 hour mortality data of German male cockroaches (Blatella Germanicus) shown in Table XXXX. The synergists and insecticide were diluted in acetone and applied in small droplets to the thorax of the insect. These doses of synergist alone gave zero percent insect mortality.
The synergistic effect with GS 13005 of compounds I-B, II-H, II-K, II-P, II-Q, II-R and IV-C is illustrated by the 24 hour mortality of German male cockroaches shown in Table XXXXI. These doses of synergist alone caused zero percent insect mortality.

Row | SMILES | Contact Synergistic Ratio, Carbaryl (LC50 insecticide alone / LC50 with synergist) [1] | Contact Synergistic Ratio, Pyrolan (LC50 insecticide alone / LC50 with synergist) [1] | percent kill (houseflies) | number of mice dead (mice) | insect mortality, synergist alone ([2]; synergist alone at doses of Table XXXX) | insect mortality, synergist alone ([2]; synergist alone at doses of Table XXXXI)
1 | C#CCON=C(C)c1ccc(Cl)cc1 [I-D] | 177 | 25 | 100% | – | – | –
2 | C#CCON=C(C)c1ccc2ccccc2c1 [I-F] | 200 | 50 | – | – | – | –
3 | C#CCON=Cc1ccc(Cl)cc1Cl [I-G] | – | – | 90% | – | – | –
4 | C#CCOCc1ccc(Cl)c(Cl)c1 [II-C] | 100 | 15 | – | – | – | –
5 | C#CCOCc1ccc(Cl)c(Cl)c1Cl [II-D] | 200 | 30 | – | 0 | – | –
6 | C#CCOCc1c(Cl)ccc(Cl)c1Cl [II-E] | 120 | 20 | – | – | – | –
7 | C#CCOCc1c(Cl)cccc1[N+](=O)[O-] [II-K] | – | – | – | 1 | zero | zero

— patent publication US4020111A, “Propynyloxy alkyl arene insecticides” (priority 1975, dated 1977)
